# According to PMC12051030, “Identification of inhibitors of the Salmonella FraB deglycase, a drug target” (FEBS Open Bio, 2025):
# Read-outs that look alike come from different tables or passages of the source.
# Tests used:
# [1] = biological target: T1, FraB (Salmonella enterica subsp. enterica serovar Typhimurium, UniProt Q8ZLD0); assay: FraB assay, Michaelis–Menten kinetics with substrate; format: biochemical
# Description: The substrate for FraB, 6‐P‐F‐Asp, was synthesized as previously described. FraB activity was monitored as described previously, with the following changes. The final reaction (30 μL) consisted of 25 mM HEPES pH 8 (at 20 °C), 5 mM MgCl2, 0.1 mM ethylene glycol tetraacetic acid (EGTA), 0.5 mM NAD^+, 1 mU G6PD from Leuconostoc mesenteroides (#LS003981; Worthington Biochemicals, Lakewood, NJ, USA), 100 nM His6‐FraB, and 0–3 mM 6‐P‐F‐Asp. The reaction mixture without substrate (29 μL) was added to one well of a 384‐well polystyrene white μClear® microplate (#781095; Greiner Bio‐One, Monroe, NC, USA) and incubated at 37 °C for 2 min, prior to the addition of 1 μL substrate to initiate the reaction. NADH generation was monitored using either absorbance (340 nm) or fluorescence (350 nm excitation, 450 nm emission) and with either an INFINITE M1000 PRO (Tecan, Mannedorf, Switzerland) or Synergy H1 (Biotek, Winooski, VT, USA) plate reader. Absorbance/fluorescence was plotted against time and slopes were obtained by linear regression analyses. These slopes were converted into initial velocities by dividing them by either the absorbance extinction coefficient (ε340 = 6,220 M ^−1·cm^−1) or the molar fluorescence determined based on standard curves obtained in different plate readers (23,646 RFUs·μM ^−1, Tecan; 285,108 RFUs·μM ^−1, Biotek; Fig. S2). […]
# [2] = biological target: T1, FraB; conditions: previously reported; cited from earlier work
# [3] = substrate: O=C(O)C[C@H](NCC1(O)O[C@H](COP(=O)(O)O)[C@@H](O)[C@@H]1O)C(=O)O; assay: FraB assay, Michaelis–Menten kinetics with substrate; format: biochemical, Salmonella; conditions: pH 8.0
# Description: The substrate for FraB, 6‐P‐F‐Asp, was synthesized as previously described. FraB activity was monitored as described previously, with the following changes. The final reaction (30 μL) consisted of 25 mM HEPES pH 8 (at 20 °C), 5 mM MgCl2, 0.1 mM ethylene glycol tetraacetic acid (EGTA), 0.5 mM NAD^+, 1 mU G6PD from Leuconostoc mesenteroides (#LS003981; Worthington Biochemicals, Lakewood, NJ, USA), 100 nM His6‐FraB, and 0–3 mM 6‐P‐F‐Asp. The reaction mixture without substrate (29 μL) was added to one well of a 384‐well polystyrene white μClear® microplate (#781095; Greiner Bio‐One, Monroe, NC, USA) and incubated at 37 °C for 2 min, prior to the addition of 1 μL substrate to initiate the reaction. NADH generation was monitored using either absorbance (340 nm) or fluorescence (350 nm excitation, 450 nm emission) and with either an INFINITE M1000 PRO (Tecan, Mannedorf, Switzerland) or Synergy H1 (Biotek, Winooski, VT, USA) plate reader. Absorbance/fluorescence was plotted against time and slopes were obtained by linear regression analyses. These slopes were converted into initial velocities by dividing them by either the absorbance extinction coefficient (ε340 = 6,220 M ^−1·cm^−1) or the molar fluorescence determined based on standard curves obtained in different plate readers (23,646 RFUs·μM ^−1, Tecan; 285,108 RFUs·μM ^−1, Biotek; Fig. S2). These initial velocities (v o) in turn were plotted against [6‐P‐F‐Asp] to obtain Michaelis–Menten curves that were fit to the formula v o = (V max × [S])/(K m + [S]) by Kaleidagraph (Version 4.5.3; Synergy Software, Reading, PA, USA). The activity of recombinant FraB (Fig. S3) was similar to that as reported previously.
# [4] = other: newer batches of substrate
# [5] = other: representative Michaelis-Menten plot, Fig. S3, curve-fit errors
Molecule,K m ([1]; approximate value used for [S]/K m),K m ([1]; newer batches of substrate),K m [2],k cat [2],k cat/K m [2],"kcat [3, 4]","kcat/Km [3, 4]","Km [3, 5]","kcat [3, 5]","kcat/Km [3, 5]"
"O=C(O)C[C@H](NCC1(O)O[C@H](COP(=O)(O)O)[C@@H](O)[C@@H]1O)C(=O)O (stereo partly shown) [6‐P‐F‐Asp, 6‐phosphofructose‐aspartate]",~ 40 μM,0.042 ± 0.007 mM,116 ± 12 µM,1.05 ± 0.167 s⁻¹,543 min^−1 mM ^−1,,,,,
FraB (Salmonella enterica subsp. enterica serovar Typhimurium str. LT2) (protein) MMGMKETVSNIVTSQAEKGGVKHVYYVACGGSYAAFYPAKAFLEKEAKALTVGLYNSGEFINNPPVALGENAVVVVASHKGNTPETIKAAEIARQHGAPVIGLTWIMDSPLVAHCDYVETYTFGDGKDIAGEKTMKGLLSAVELLQQTEGYAHYDDFQDGVSKINRIVWRACEQVAERAQAFAQEYKDDKVIYTVASGAGYGAAYLQSICIFMEMQWIHSACIHSGEFFHGPFEITDANTPFFFQFSEGNTRAVDERALNFLKKYGRRIEVVDAKELGLSTIKTTVIDYFNHSLFNNVYPVYNRALAEARQHPLTTRRYMWKVEY,,,,,,0.95 ± 0.012 s⁻¹,"1,357 min^−1 mM ^−1",67 ± 8 µM,1.16 ± 0.00317 s⁻¹,1040 min⁻¹ mM⁻¹
